Reference: ChEMBL document CHEMBL3112555, “Danshen diversity defeating dementia” (Bioorg Med Chem Lett, 2014)

Tests used:
Conditions in all cases: in vivo
[1] = Bioavailability in rat at 100 mg/kg, ip; format: ADME, organism-based
[2] = Oral bioavailability in rat at 100 mg/kg; format: ADME, organism-based
[3] = Bioavailability in beagle dog; format: ADME, organism-based, Canis lupus familiaris

| bioavailability [3] [%] | Structure (SMILES) | bioavailability [1] [%] | bioavailability [2] [%] |
| --- | --- | --- | --- |
|  | C[C@H]1COC2=C1C(=O)C(=O)c1c2ccc2c1CCCC2(C)C [CRYPTOTANSHINONE] | 10.6 | 2.1 |
| 1.47 | O=C(/C=C/c1ccc(O)c(O)c1/C=C/c1ccc(O)c(O)c1)O[C@H](Cc1ccc(O)c(O)c1)C(=O)O [SALVIANOLIC ACID A] |  |  |
